Laboratory results: patent US6894061B2, “Substituted dihydrophenanthridinesulfonamides” (Wyeth, priority 2002, dated 2005)
Where two headings read alike, the source gives them in different places.

Columns and labels:
creatine kinase = test: Creatine kinase (CK) test procedure in Ad5-wt-ERα infected HAECT-1 cells; format: cell-based, human; details: Ad5-wt-ERα infected HAECT-1 cells; for Emax at 10 µM / Creatin Kinase Efficacy (%): @10 μM
Method: (§1) After four hours, cells were washed with EBM-BSA and incubated overnight in the same medium. Following overnight incubation, cells were washed with EBM-BSA and infected for 2 hours with 6 mL of a 1:10 dilution of Ad5-3x(NFκB).Luc virus (Adenovirus luciferase expression vector driven by 3 repeats of the MHC NFκb site 5′ to the thymidine kinase promoter) in EBM-BSA. After two hours, cells were washed and incubated at 34° C. for 1 hour. […] Control (no ER infection) cells were processed as above without Ad5-wt-hERα virus infection.
(§2) ERα infected HAECT-1 cells or control cells were thawed, diluted 42× in warm EBM-BSA, plated into 96-well plates at 0.1 mL/well and incubated for 4 hours at 34° C. Test compounds were added to the cells as 2× stocks in EBM-BSA containing 2 ng/mL IL-1β (R&D Systems) and the 96-well plates were returned to the incubator (34° C.). After 15-20 hours, 100 μL aliquots of media were removed from the cells and assayed for IL-6 content using a BioSource human IL-6 ELISA Kit. Cells were subsequently washed with 300 μL of Dulbecco's phosphate buffered saline and lysed in 50 μL of Cell Culture Lysis Reagent (Promega). Luciferase was determined on a Wallac Victor^2 Luminometer (Gaithersburg, Md.) using 10 μL of lysate and mixing with 100 μL of Promega Luciferase Assay reagent. Creatine kinase was determined from the rate of increase in A340 following addition of 100 μL of CK assay reagent (Sigma, cat. No 47-10) to the remainder of the cell lysate.
(§3) For IC50 and EC50 calculations, mean IL-6, luciferase or CK values versus log10 of the compound concentration were fitted to a four parameter logistic equation. The IC50/EC50 value, ‘Hill slope’, upper and lower limits of the curve were iteratively estimated.

ER/NF-κB = ER/NF-κB luciferase reporter in Ad5-wt-ERα infected HAECT-1 cells; format: cell-based, human; details: for Emax: read-out: ER/NFκB Efficacy (%)*; for IC50: read-out: ER/NFκB IC50
Method: as §1, §2, §3

[1] = Homo sapiens, HAECT1, read-out: Creatin Kinase Efficacy (%)

Row | SMILES | Emax at 10 µM (creatine kinase; [1]) [%] | Emax (ER/NF-κB; Homo sapiens, HAECT1, IL-1β) [%] | IC50 (ER/NF-κB; Homo sapiens, HAECT1, IL-1β) [nM] | also measured
1 | CC[C@@H](C)[C@H]1c2ccccc2-c2ccccc2N1S(=O)(=O)c1ccc(O)cc1 (relative stereo) [Example 22, 4-{[(S*)-6-[(R*)-1-methylpropyl]phenanthridin-5(6H)-yl]sulfonyl}phenol] | < 35 | 96 | 163 | melting point: 115 to 118 °C
2 | CCC1c2ccccc2-c2ccccc2N1S(=O)(=O)c1ccc(O)cc1 (centres unmarked) [Example 18, 4-[(6-Ethylphenanthridin-5(6H)-yl)sulfonyl]phenol] | < 35 | 76 | 529 | 
3 | CCC1c2ccccc2-c2cc(Br)ccc2N1S(=O)(=O)c1ccc(O)cc1 (centres unmarked) [Example 19, 4-[(2-Bromo-6-ethylphenanthridin-5(6H)-yl)sulfonyl]phenol] | < 35 | 80 | 186 | 
4 | CCC1c2ccccc2-c2ccccc2N1S(=O)(=O)c1ccc(O)c(C)c1 (centres unmarked) [Example 20, 4-[(6-Ethylphenanthridin-5(6H)-yl)sulfonyl]-2-methylphenol] | < 35 |  | > 10000 | 
5 | CCC1c2ccccc2-c2cc(Br)ccc2N1S(=O)(=O)c1ccc(O)c(C)c1 (centres unmarked) [Example 21, 4-[(2-Bromo-6-ethylphenanthridin-5(6H)-yl)sulfonyl]-2-methylphenol] | < 35 | 85 | 831 | 
6 | CC1c2ccccc2-c2ccccc2N1S(=O)(=O)c1ccc(O)c(C(=O)O)c1 (centres unmarked) [Example 24, 2-Hydroxy-5-[(6-methylphenanthridin-5(6H)-yl)sulfonyl]benzoic acid] |  |  |  | melting point: 225 to 230 °C
7 | CCOC(=O)c1cc(S(=O)(=O)N2c3ccccc3-c3ccccc3C2C)ccc1OCC (centres unmarked) [Example 25, Ethyl 2-ethoxy-5-[(6-methylphenanthridin-5(6H)-yl)sulfonyl]benzoate] |  |  |  | melting point: 113 to 115 °C
8 | CC1c2ccccc2-c2ccccc2N1S(=O)(=O)c1ccc(O)c(C=O)c1 (centres unmarked) [Example 27, 2-Hydroxy-5-[(6-methylphenanthridin-5(6H)-yl)sulfonyl]b nzald hyde] |  |  |  | Creatin Kinase Efficacy (%) (creatine kinase): <35% @10 μM; IC50 (ER/NF-κB; IL-1β): > 10000 nM
9 | CCC1c2ccccc2-c2cc(-c3ccsc3)ccc2N1S(=O)(=O)c1ccc(O)cc1 (centres unmarked) [Example 28, 4-[(6-Ethyl-2-thin-3-ylphnanthridin-5(6H)-yl)sulfonyl]phenol] |  |  |  | Creatin Kinase Efficacy (%) (creatine kinase): <35% @10 μM; ER/NFκB Efficacy (%)* (ER/NF-κB; IL-1β): 98%; IC50 (ER/NF-κB; IL-1β): 76 nM
10 | CCC1c2ccccc2-c2cc(-c3cccc(OC)c3)ccc2N1S(=O)(=O)c1ccc(O)cc1 (centres unmarked) [Example 29, 4-{[6-Ethyl-2-(3-methoxyphenyl)phenanthridin-5(6H)-yl]sulfonyl}phenol] | < 35 | 86 | 234 | 
11 | CC1c2c(O)cccc2-c2ccccc2N1S(=O)(=O)c1ccc(O)cc1 (centres unmarked) [Example 39, 5-[(4-Hydroxyphenyl)sulfonyl]-6-methyl-5,6-dihydrophenanthridin-7-ol] | < 35 |  | > 10000 | 
12 | CCC1c2cc(F)ccc2-c2cc(-c3ccsc3)ccc2N1S(=O)(=O)c1ccc(O)cc1 (centres unmarked) [Example 52, 4-[(6-Ethyl-8-fluoro-2-thien-3-ylphenanthridin-5(6H)-yl)sulfonyl]phenol] | < 35 | 95 | 68 | 
13 | CCC1c2cc(F)ccc2-c2ccccc2N1S(=O)(=O)c1ccc(OC(=O)c2ccccc2)cc1 (centres unmarked) [Example 55, 4-[(6-Ethyl-8-fluorophenanthridin-5(6H)-yl)sulfonyl]phenyl benzoate] |  |  | > 10000 | EC50 (creatine kinase; Homo sapiens, HAECT1, read-out: Creatin Kinase EC50): 239 nM; Emax (creatine kinase; [1]): 32%
14 | CC1c2cc(Cl)ccc2-c2ccccc2N1S(=O)(=O)c1ccc(O)cc1 (centres unmarked) [Example 61, 4-[(8-Chloro-6-methylphenanthridin-5(6H)-yl)sulfonyl]phenol] |  |  |  | melting point: 176 to 178 °C
15 | CCC1c2ccccc2-c2cc(-c3ccccc3O)ccc2N1S(=O)(=O)c1ccc(O)cc1 (centres unmarked) [Example 63, 2-{6-Ethyl-5-[(4-hydroxyphnyl)sulfonyl]-5,6-dihydrphnanthridin-2-yl}ph nol] |  |  |  | Creatin Kinase Efficacy (%) (creatine kinase): <35% @10 μM; ER/NFκB Efficacy (%)* (ER/NF-κB; IL-1β): 89%; IC50 (ER/NF-κB; IL-1β): 335 nM
16 | CCC1c2ccccc2-c2cc(/C=C/c3ccccc3)ccc2N1S(=O)(=O)c1ccc(O)cc1 (centres unmarked) [Example 65, 4-{[6-Ethyl-2-[(E)-2-phenylethenyl]phenanthridin-5(6H)-yl]sulfonyl}phenol] | < 35 | 93 | 241 | 
17 | CCC1c2ccccc2-c2cc(-c3cccc(Cl)c3)ccc2N1S(=O)(=O)c1ccc(O)cc1 (centres unmarked) [Example 67, 4-{[2-(3-Chlorophenyl)-6-ethylphenanthridin-5(6H)-yl]sulfonyl}phenol] | < 35 | 79 | 245 | 
18 | CCC1c2ccccc2-c2cc(-c3ccccc3)ccc2N1S(=O)(=O)c1ccc(O)cc1 (centres unmarked) [Example 69, 4-[(6-Ethyl-2-phnylphenanthridin-5(6H)-yl)sulfonyl]phenol] |  |  |  | Creatin Kinase Efficacy (%) (creatine kinase): <35% @10 μM; ER/NFκB Efficacy (%)* (ER/NF-κB; IL-1β): 90%; IC50 (ER/NF-κB; IL-1β): 235 nM
19 | CCC1c2ccccc2-c2cc(-c3ccccc3C)ccc2N1S(=O)(=O)c1ccc(O)cc1 (centres unmarked) [Example 70, 4-{[6-Ethyl-2-(2-mthylphnyl)phenanthridin-5(6H)-yl]sulfonyl}phenol] |  |  |  | Creatin Kinase Efficacy (%) (creatine kinase): <35% @10 μM; ER/NFκB Efficacy (%)* (ER/NF-κB; IL-1β): 90%; IC50 (ER/NF-κB; IL-1β): 463 nM
20 | CCC1c2ccccc2-c2cc(-c3ccc(O)cc3)ccc2N1S(=O)(=O)c1ccc(O)cc1 (centres unmarked) [Example 73, 4-{[6-Ethyl-2-(4-hydroxyphenyl)phenanthridin-5(6H)-yl]sulfonyl}phenol] | < 35 | 56 | 52 | 
21 | CCC1c2ccccc2-c2cc(-c3ccccc3Cl)ccc2N1S(=O)(=O)c1ccc(O)cc1 (centres unmarked) [Example 74, 4-{[2-(2-Chlorophenyl)-6-ethylphenanthridin-5(6H)-yl]sulfonyl}phenol] | < 35 | 96 | 434 | 
22 | CCc1ccc(-c2ccc3c(c2)-c2ccccc2C(CC)N3S(=O)(=O)c2ccc(O)cc2)cc1 (centres unmarked) [Example 75, 4-{[6-Ethyl-2-(4-ethylphenyl)phenanthridin-5(6H)-yl]sulfonyl}phenol] | < 35 | 116 | 3930 | 
23 | CCC1c2ccccc2-c2cc(-c3ccc(C(C)=O)s3)ccc2N1S(=O)(=O)c1ccc(O)cc1 (centres unmarked) [Example 76, 1-(5-{6-Ethyl-5-[(4-hydroxyphnyl)sulfonyl]-5,6-dihydrophnanthridin-2-yl}thin-2-yl)ethanone] |  |  |  | Creatin Kinase Efficacy (%) (creatine kinase): <35% @10 μM; ER/NFκB Efficacy (%)* (ER/NF-κB; IL-1β): 67%; IC50 (ER/NF-κB; IL-1β): 1180 nM
24 | CCC1c2ccccc2-c2cc(-c3ccccc3O)ccc2N1S(=O)(=O)c1ccc(O)c(C)c1 (centres unmarked) [Example 78, 4-{[6-Ethyl-2-(2-hydroxyphenyl)phenanthridin-5(6H)-yl]sulfonyl}-2-methylphenol] | < 35 | 79 | 771 | 
25 | CCC1c2ccccc2-c2cc(-c3ccsc3)ccc2N1S(=O)(=O)c1ccc(O)c(C)c1 (centres unmarked) [Example 79, 4-[(6-Ethyl-2-thien-3-ylphenanthridin-5(6H)-yl)sulfonyl]-2-methylphenol] | < 35 | 86 | 226 | 
26 | CCC1c2ccccc2-c2cc(-c3cccc(O)c3)ccc2N1S(=O)(=O)c1ccc(O)c(C)c1 (centres unmarked) [Example 84, 4-{[6-Ethyl-2-(3-hydroxyphenyl)phenanthridin-5(6H)-yl]sulfonyl}-2-methylphenol] | < 35 | 80 | 447 | 
27 | CCC1c2ccccc2-c2cc(-c3cc4ccccc4s3)ccc2N1S(=O)(=O)c1ccc(O)c(C)c1 (centres unmarked) [Example 90, 4-{[2-(1-Benzothien-2-yl)-6-ethylphenanthridin-5(6H)-yl]sulfonyl}-2-methylphenol] | < 35 | 108 | 2550 | 
28 | CCC1c2ccccc2-c2cc(-c3ccc(O)cc3)ccc2N1S(=O)(=O)c1ccc(O)c(C)c1 (centres unmarked) [Example 94, 4-{[6-Ethyl-2-(4-hydroxyphnyl)phenanthridin-5(6H)-yl]sulfnyl}-2-methylph nl] |  |  |  | Creatin Kinase Efficacy (%) (creatine kinase): <35% @10 μM; ER/NFκB Efficacy (%)* (ER/NF-κB; IL-1β): 105%; IC50 (ER/NF-κB; IL-1β): 382 nM
29 | CCC1c2ccccc2-c2cc(-c3ccccc3Cl)ccc2N1S(=O)(=O)c1ccc(O)c(C)c1 (centres unmarked) [Example 95, 4-{[2-(2-Chlorophenyl)-6-ethylphenanthridin-5(6H)-yl]sulfonyl}-2-methylphenol] | < 35 | 89 | 678 | 
30 | CCC1c2cc(F)ccc2-c2cc(-c3cccnc3)ccc2N1S(=O)(=O)c1ccc(O)cc1 (centres unmarked) [Example 127, 4-[(6-Ethyl-8-fluoro-2-pyridin-3-ylphenanthridin-5(6H)-yl)sulfonyl]phenol] |  |  |  | melting point: 195 to 200 °C
